Assay results taken from patent publication US20070238158A1, “Method for enhancing enzyme activity at elevated temperature” (The Institute of Physical and Chemical Research, priority 1996, published 2007).

Tests used:
Assay type in all cases: biochemical
[1] = target: T1, reverse transcriptase Superscript II (Moloney murine leukemia virus, UniProt P03355, D1183G/D1242N/E1221Q); assay: Reverse transcription activity of Superscript II at elevated temperature (cDNA synthesis from in vitro transcribed RNA, denaturing agarose electrophoresis, autoradiography); details: for electrophoretic pattern: full length cDNAs versus short products from prematurely terminated synthesis: reaction at 60° C., 20% of the substance and 20% glycerol in buffer (Lane 3 condition)
T1 construct: Superscript II is known as a reverse transcriptase (RNA-dependent DNA polymerase)
Experimental: To examine reverse transcription activity of Superscript II at an elevated temperature, cDNAs were synthesized using RNAs transcribed in vitro by T7 RNA polymerase as template and the products were evaluated. By using RNAs as a template transcribed in vitro and evaluating the products by electrophoresis, reverse transcription efficiencies of the samples can be compared with one another and thereby non-specific transcription termination which leads to premature termination of reverse transcription and/or reduction of reaction efficiency can be evaluated. The template RNAs were prepared by transcribing pBluescript II SK, which had been cleaved into a linear form with a restriction enzyme NotI, with T7 RNA polymerase in vitro. This reaction was initiated from T7 promoter described in the instruction of pBluescript II SK.
As a control, the following standard buffer condition was used: 50 mM Tris-HCl, pH 8.3, 75 mM KCl, 3 mM MgCl2, 10 mM dithiothreitol, each 0.75 mM of dNTPs (dATP, dGTP, dCTP and dTTP).
In the above standard buffer condition, 1 μg of template RNA, 400 ng of primer (20mer SK primer, […]) and 200 units of Superscript II were prepared and the final volume was adjusted to 20 μl. 0.2 μl of [α-^32P] dGTP was used for labeling of reverse transcription products. The RNA and the primer were incubated at 65° C. before the other substrates were added. Then, the reaction was performed at 42° C. for 1 hour. The reaction products were subjected to denatured agarose electrophoresis and electrophoretic patterns were examined by autoradiography to evaluate recoveries of full length cDNAs and rates of short products obtained from incomplete elongation. The results are shown in Lane 1 of FIG. 1.
The following buffer condition for reverse transcription was used to verify that addition of oligosaccharide stabilizes the enzyme reaction: 50 mM Tris-HCl, pH 8.3, 75 mM KCl, 3 mM MgCl2, 10 mM dithiothreitol, each 0.75 mM of dNTPs (dATP, dGTP, dCTP, dTTP), 20% (w/v) trehalose and 20% (v/v) glycerol.
1 μg of template RNA, 400 ng of primer (20 mer SK primer) and 200 units of Superscript II were reacted in 24 μl of aqueous solution under the above buffer condition. 0.2 μl of [α-^32P] dGTP was used for labeling of reverse transcription products. […] The primer and the template RNAs were annealed at 37° C. for 2 minutes and the enzyme activity was measured at 60° C.
The reaction products were subjected to denaturing agarose electrophoresis as described above, and electrophoretic patterns were examined by autoradiography to evaluate recoveries of full length cDNAs and rates of short products obtained from incomplete elongation.

[2] = test system: restriction enzyme Sty I; assay: Sty I restriction enzyme digestion of λ DNA at 37-60° C. (agarose gel, image analysis of 1 kbp band); details: suitable concentration; betaine 0-0.6M or sarcosine 0-3.6M; 37, 45, 50, 55 or 60° C. for 1 hour
Experimental: Reaction solutions (20 μl each) containing a restriction enzyme, Sty I 0.5 units, its substrate, λ DNA 0.5 μg and betaine 0-0.6M or sarcosine 0-3.6M were incubated at 37, 45, 50, 55 or 60° C. for 1 hour. In order to prevent initiation of enzyme reaction before the incubation, the samples were quickly prepared on ice. Upon incubation, 0.25% bromophenol blue, 0.26% XC (xylene cyanol), 30% glycerol and 120 mM EDTA (4 μl) was added to the reaction solution to terminate the reaction. The resulting solution was heated at […] for 5 minutes to melt cos sites and subjected to electrophoresis using 0.8% agarose gel containing 0.05% EtBr.
After electrophoresis, image analysis of the gels was conducted. Enzyme activity was represented by comparing strength of bands appeared at 1 kbp (with arrow). Regarding the samples using betaine, the standard (100) is the band strength obtained from the sample using 0 M of betaine and incubated at 37° C. Regarding the samples using sarcosine, the standard (100) is the band strength obtained from the sample using 0 M of sarcosine and incubated at 37° C.

[3] = target: T1, reverse transcriptase Superscript II; assay: Reverse transcription activity of Superscript II at elevated temperature (cDNA synthesis from in vitro transcribed RNA, denaturing agarose electrophoresis, autoradiography)

Compound | electrophoretic pattern: full length cDNAs versus short products from prematurely terminated synthesis [1] | further results
OC[C@@H](O)[C@H](O)[C@@H](O)CO [xylitol] | the amount of products obtained from prematurely terminated synthesis became very small and full length products were synthesized | 
OC[C@H]1O[C@H](O[C@H]2[C@H](O)[C@@H](O)C(O)O[C@@H]2CO)[C@H](O)[C@@H](O)[C@@H]1O (mixture of isomers) [maltose] | the amount of products obtained from prematurely terminated synthesis became very small and full length products were synthesized | 
CNCC(=O)O [sarcosine] |  | thermal activation of restriction enzyme (relative activity of Sty I) [2]: thermally activated
Triton X100 |  | amount of incomplete reverse transcription products when added to the Lane 3 condition ([1]; 60° C., 0.05% Triton X100 plus 20% trehalose and 20% glycerol (Lane 4)): further reduced; effect on enzyme activity when added to the Lane 3 condition ([1]; 60° C., additive plus 20% trehalose and 20% glycerol, BSA 0.125 μg/μl (Lane 5), Triton X100 0.05% (Lane 4)): the whole activity of the reverse transcriptase was slightly reduced
O=C(CO)[C@@H](O)[C@H](O)[C@H](O)CO [levulose] | the amount of products obtained from prematurely terminated synthesis became very small and full length products were synthesized | 
C[N+](C)(C)CC(=O)O [betaine] | the amount of products obtained from prematurely terminated synthesis became very small and full length products were synthesized | thermal activation of restriction enzyme (relative activity of Sty I) [2]: thermally activated
OC[C@H]1O[C@H](O[C@H]2O[C@H](CO)[C@@H](O)[C@H](O)[C@H]2O)[C@H](O)[C@@H](O)[C@@H]1O [trehalose] | the amount of products obtained from prematurely terminated synthesis became very small and full length products were synthesized | Superscript II activity compared with control reaction in standard buffer ([3]; normal temperature (42° C.), 20% (w/v) trehalose and 20% (v/v) glycerol): higher activity than the control reaction; electrophoretic pattern: products from premature termination of reverse transcription ([3]; reaction at 42° C., 20% trehalose and 20% glycerol (Lane 2)): products resulted from premature termination as mentioned above were also observed
OC[C@@H](O)C(O)[C@H](O)CO [arabitol] | the amount of products obtained from prematurely terminated synthesis became very small and full length products were synthesized | 
OC[C@@H](O)[C@@H](O)[C@H](O)[C@@H](O)CO [sorbitol] | the amount of products obtained from prematurely terminated synthesis became very small and full length products were synthesized | 
